Results published in the NIST ThermoML archive (doi:10.1021/je5010214).

Conditions: Liquid, Vibrating tube method

CC(C)CO [2-methyl-1-propanol]
Conditions	mass density [kg/m3]
303.15 K, 20042 kPa	809.402
303.15 K, 25084 kPa	812.578
303.15 K, 30167 kPa	816.191
303.15 K, 32070 kPa	817.319
303.15 K, 33147 kPa	817.694
303.15 K, 35162 kPa	818.815
303.15 K, 38019 kPa	820.574
303.15 K, 39970 kPa	821.716
303.15 K, 42004 kPa	823.024
303.15 K, 45033 kPa	824.95
303.15 K, 49864 kPa	827.592
303.15 K, 52115 kPa	829.036
303.15 K, 55239 kPa	830.776
303.15 K, 58089 kPa	832.479
303.15 K, 60079 kPa	833.282
303.15 K, 62294 kPa	834.706
303.15 K, 65137 kPa	835.715
303.16 K, 270.1 kPa	793.901
303.16 K, 464.4 kPa	794.084
303.16 K, 779.6 kPa	794.287
303.16 K, 2945 kPa	796.031
303.16 K, 4911.2 kPa	797.923
303.16 K, 7058.6 kPa	799.569
303.16 K, 12047 kPa	803.47
303.16 K, 22055 kPa	811.092
303.16 K, 28094 kPa	815.049
303.16 K, 32939 kPa	817.604
303.16 K, 34037 kPa	818.139
303.16 K, 48317 kPa	826.769
303.16 K, 66124 kPa	836.43
308.15 K, 96.7 kPa	791.579
308.15 K, 250.6 kPa	791.714
308.15 K, 562.2 kPa	791.995
308.15 K, 991.9 kPa	792.349
308.15 K, 5219.3 kPa	795.881
308.15 K, 10282 kPa	799.926
308.15 K, 15083 kPa	803.575
308.15 K, 32866 kPa	815.75
308.15 K, 35203 kPa	817.171
308.15 K, 48031 kPa	824.96
308.15 K, 55094 kPa	828.952
308.15 K, 60161 kPa	831.729
308.15 K, 62192 kPa	832.798
308.15 K, 66004 kPa	834.804
308.16 K, 770.2 kPa	792.158
308.16 K, 2101.2 kPa	793.3
308.16 K, 3195.1 kPa	794.224
308.16 K, 7083 kPa	797.398
308.16 K, 9108 kPa	799.011
308.16 K, 12379 kPa	801.538
308.16 K, 18161 kPa	805.827
308.16 K, 20006 kPa	807.165
308.16 K, 22192 kPa	808.686
308.16 K, 25100 kPa	810.705
308.16 K, 27887 kPa	812.568
308.16 K, 30041 kPa	813.99
308.16 K, 31933 kPa	815.242
308.16 K, 33077 kPa	815.959
308.16 K, 34026 kPa	816.482
308.16 K, 35193 kPa	817.245
308.16 K, 38088 kPa	818.995
308.16 K, 40106 kPa	820.225
308.16 K, 42282 kPa	821.541
308.16 K, 45145 kPa	823.251
308.16 K, 50089 kPa	826.126
308.16 K, 52047 kPa	827.233
308.16 K, 58085 kPa	830.585
308.16 K, 65217 kPa	834.405
313.15 K, 82.9 kPa	787.4
313.15 K, 316.8 kPa	787.607
313.15 K, 491.8 kPa	787.767
313.15 K, 890.9 kPa	788.108
313.15 K, 981.5 kPa	788.182
313.15 K, 1939.6 kPa	789.038
313.15 K, 2951 kPa	789.905
313.15 K, 4889.1 kPa	791.537
313.15 K, 6856.5 kPa	793.195
313.15 K, 8886.9 kPa	794.841
313.15 K, 10029 kPa	795.77
313.15 K, 11886 kPa	797.214
